In patent US12617752B2, “Rapidly metabolized lipid compound” (Beijing Jitai Life Sciences Ltd, priority 2023, dated 2026):

Legend:
[1] = Particle size and PDI of lipid nanoparticles by dynamic light scattering; assay type: physicochemical; details: lipid nanoparticles with luciferase mRNA; ionizable lipid/cholesterol/DSPC/DMG-PEG2000 50/38.5/10/1.5 mol%
Summary of the method: (§1)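 LNPs of ionizable lipid/cholesterol/phospholipid/PEG-lipid (50/38.5/10/1.5 mol%, N/P 6) were formed by microfluidic mixing with mRNA in pH 4.5 acetate, then buffer-exchanged by ultrafiltration. Size and PDI were measured by DLS. Encapsulation came from RiboGreen fluorescence (485/528 nm) in TE pH 7.5, with and without 0.5% Triton at 37 °C for 30 min.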

[2] = system: C57BL/6 mice; test: In vivo delivery of luciferase mRNA lipid nanoparticles in mice (bioluminescence imaging); details: intravenous, single dose 0.5 mg/kg luciferase mRNA
Summary of the method: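 Female C57BL/6 mice, 6-8 weeks old, received luciferase mRNA lipid nanoparticles as a single intravenous dose of 0.5 mg/kg mRNA. At 6 h, D-luciferin given intraperitoneally; 10 min later, mice were imaged under isoflurane anaesthesia. Values are group mean fluorescence intensity and total photon count.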

[3] = Encapsulation efficiency of lipid nanoparticles (Quant-it RiboGreen RNA Assay); assay type: physicochemical; details: lipid nanoparticles with luciferase mRNA
Summary of the method: as §1

| Structure (SMILES) | Particle size (nm) [1] | Particle-size distribution (PDI) [1] | Total photon count in vivo at 6 hours after administration (Total Flux) [2] | Encapsulation efficiency (%) [3] |
| --- | --- | --- | --- | --- |
| CCCCCCCCCCOC(=O)CCCCC(C)(C)CCN(CCCCO)CCCCCCCC(=O)OC(CCCCCCCCC)CCCCCCCCC [67a] | 111.33 nm | 0.06 | 6.07E+10 | 91.57% |
| CCCCCCCCCC(=O)OCC(C)(C)CCCCCN(CCO)CCCCCCC(=O)OCC(CCCCCCCC)CCCCCCCC [67b] | 88.28 nm | 0.23 | 1.71E+11 | 96.30% |
| CCCCCCCCCCCOC(=O)CCCCC(C)(C)CCN(CCCCO)CCCCCCCC(=O)OC(CCCCCCCCCC)CCCCCCCCCC [68a] | 103.93 nm | 0.04 | 7.55E+10 | 94.47% |
| CCCCCCCCCC(=O)OCC(C)(C)CCCCCN(CCO)CCCCCCC(=O)OCCC(CCCCCCC)CCCCCCC [68b] | 88.33 nm | 0.20 | 2.88E+11 | 96.31% |
| CCCCCCCCCOC(=O)CCCCC(C)(C)CCN(CCO)CCCCCC(=O)OCC(CCCCCCCCC)CCCCCCCCC [69a] | 107.20 nm | 0.34 | 7.41E+10 | 96.65% |
| CCCCCCCCCC(=O)OCC(C)(C)CCCCCN(CCCCO)CCCCCCC(=O)OCC(CCCCCCCC)CCCCCCCC [69b] | 99.05 nm | 0.13 | 1.52E+11 | 93.85% |
| CCCCCCCCCOC(=O)CCCCC(C)(C)CCN(CCO)CCCCCCC(=O)OCC(CCCCCCCC)CCCCCCCC [70a] | 86.08 nm | 0.15 | 9.33E+10 | 96.69% |
| CCCCCCCCCC(=O)OCC(C)(C)CCCCCN(CCCCO)CCCCCCC(=O)OCCC(CCCCCCC)CCCCCCC [70b] | 96.20 nm | 0.09 | 1.15E+11 | 96.91% |
| CCCCCCCCCC(=O)OCCCC(C)(C)CCCN(CCO)CCCCCCCC(=O)OCCC(CCCCCC)CCCCCC [71b] | 95.59 nm | 0.17 | 1.70E+11 | 95.95% |
| CCCCCCCCCCC(=O)OCCCCC(C)(C)CCN(CCO)CCCCCCCC(=O)OCCC(CCCCCCC)CCCCCCC [72b] | 92.45 nm | 0.12 | 7.01E+10 | 95.13% |
| CCCCCCCCCC(=O)OCCCC(C)(C)CCCN(CCO)CCCCCCC(=O)OCCC(CCCCCCC)CCCCCCC [74b] | 93.18 nm | 0.17 | 7.13E+10 | 94.92% |
| CCCCCCCCCC(=O)OCCCC(C)(C)CCCN(CCO)CCCCCCC(=O)OCCCC(CCCCCC)CCCCCC [75b] | 91.60 nm | 0.19 | 7.05E+10 | 95.99% |
| CCCCCCCCCC(=O)OCC(C)(C)CCCCCN(CCCO)CCCCCCC(=O)OCC(CCCCCCCC)CCCCCCCC [76b] | 91.27 nm | 0.18 | 9.41E+10 | 94.97% |
| CCCCCCCCCC(=O)OCC(C)(C)CCCCCN(CCCO)CCCCCCC(=O)OCCC(CCCCCCC)CCCCCCC [77b] | 93.16 nm | 0.16 | 9.72E+10 | 95.88% |
| CCCCCCCCCCC(=O)OCC(C)(C)CCCCCN(CCCCO)CCCCCCC(=O)OCC(CCCCCCCCC)CCCCCCCCC [78b] | 98.88 nm | 0.12 | 5.51E+10 | 92.27% |
| CCCCCCCCCCC(=O)OCC(C)(C)CCCCCN(CCCO)CCCCCCCCC(=O)OCC(CCCCCCC)CCCCCCC [79b] | 99.27 nm | 0.15 | 1.62E+11 | 92.85% |
| CCCCCCCCCCC(=O)OCCCC(C)(C)CCCN(CCO)CCCCCCCC(=O)OCCC(CCCCCCC)CCCCCCC [80b] | 93.39 nm | 0.18 | 8.94E+10 | 93.59% |

| Structure (SMILES) | Particle size (nm) [1] | Particle-size distribution (PDI) [1] | Total photon count in vivo at 6 hours after administration (Total Flux) [2] | Encapsulation efficiency (%) [3] |
| --- | --- | --- | --- | --- |
| CCCCCCCCCCC(=O)OCCCC(C)(C)CCCN(CCCO)CCCCCCCC(=O)OCCC(CCCCCCC)CCCCCCC [81b] | 107.43 nm | 0.19 | 5.20E+10 | 92.87% |
| CCCCCCCCCC(=O)OCCCC(C)(C)CCCN(CCCO)CCCCCCC(=O)OCC(CCCCCCCC)CCCCCCCC [82b] | 99.57 nm | 0.16 | 5.03E+10 | 90.71% |
| CCCCCCCCCC(=O)OCCCC(C)(C)CCCN(CCCO)CCCCCCC(=O)OCCCC(CCCCCC)CCCCCC [83b] | 100.67 nm | 0.10 | 1.62E+10 | 95.70% |
| CCCCCCCCCC(=O)OCCCC(C)(C)CCCN(CCCCO)CCCCCCC(=O)OCC(CCCCCCCC)CCCCCCCC [84b] | 123.77 nm | 0.11 | 6.68E+10 | 89.17% |
| CCCCCCCCCCC(=O)OCC(C)(C)CCCCCN(CCCO)CCCCCCC(=O)OCC(CCCCCCCCC)CCCCCCCCC [85b] | 92.14 nm | 0.17 | 9.61E+10 | 95.44% |
| CCCCCCCCCCCC(=O)OCC(C)(C)CCCCCN(CCCO)CCCCCCC(=O)OCC(CCCCCCCCCC)CCCCCCCCCC [86b] | 92.26 nm | 0.13 | 1.01E+11 | 94.74% |
| CCCCCCCCCCC(=O)OCC(C)(C)CCCCCN(CCO)CCCCCCCCC(=O)OCC(CCCCCCC)CCCCCCC [87b] | 92.25 nm | 0.22 | 1.35E+11 | 94.16% |
| CCCCCCCCCCCC(=O)OCC(C)(C)CCCCCN(CCCO)CCCCCCCCC(=O)OCC(CCCCCCCC)CCCCCCCC [88b] | 98.16 nm | 0.12 | 4.51E+10 | 94.68% |
| CCCCCCCCCCC(=O)OCC(C)(C)CCCCCN(CCCCO)CCCCCCCCC(=O)OCC(CCCCCCC)CCCCCCC [89b] | 122.20 nm | 0.08 | 5.51E+10 | 84.88% |
| CCCCCCCCCCCC(=O)OCC(C)(C)CCCCCN(CCCCO)CCCCCCCCC(=O)OCC(CCCCCCCC)CCCCCCCC [90b] | 109.57 nm | 0.08 | 4.72E+10 | 91.21% |
| CCCCCCCCCCCC(=O)OCC(C)(C)CCCCCN(CCCCO)CCCCCCC(=O)OCC(CCCCCCCCCC)CCCCCCCCCC [91b] | 96.43 nm | 0.12 | 8.66E+10 | 91.95% |
| CCCCCCCCCC(=O)OCCCC(C)(C)CCCN(CCCO)CCCCCCC(=O)OCCC(CCCCCCC)CCCCCCC [92b] | 99.90 nm | 0.15 | 3.74E+10 | 92.47% |
| CCCCCCCCCC(=O)OCCCC(C)(C)CCCN(CCCCO)CCCCCCC(=O)OCCC(CCCCCCC)CCCCCCC [93b] | 141.73 nm | 0.10 | 2.45E+10 | 90.17% |
| CCCCCCCCCC(=O)OCCCC(C)(C)CCCN(CCCCO)CCCCCCC(=O)OCCCC(CCCCCC)CCCCCC [94b] | 125.60 nm | 0.11 | 2.23E+10 | 93.55% |
| CCCCCCCCCCC(=O)OCCCC(C)(C)CCCN(CCO)CCCCCCC(=O)OCC(CCCCCCCCC)CCCCCCCCC [95b] | 84.62 nm | 0.15 | 2.44E+10 | 95.41% |
| CCCCCCCCCCC(=O)OCCCC(C)(C)CCCN(CCO)CCCCCCCCC(=O)OCC(CCCCCCC)CCCCCCC [96b] | 97.75 nm | 0.15 | 3.77E+10 | 92.10% |
